Read-outs that look alike come from different tables or passages of the source. Values belong to the compound of their own block, whether it stands above or below them.
Columns and labels:
thrombin generation = assay: AXIOMATIC-TKR: Thrombin Generation Assay (TGA): peak height, ETP, lag time; format: in vivo, human; details: Milvexian 25 mg QD; Day 10-14
Text: (§1) (AXIOMATIC-TKR Phase II).
As used herein, “Thrombin Generation Assay (TGA)” is a global coagulation assay that evaluates the thrombogenic capacity of a plasma sample and has been proposed that it may better reflect prothrombotic or hemorrhagic states than conventional clotting assays. In the traditional TGA, coagulation of citrated plasma is initiated through the extrinsic pathway by adding tissue factor, phospholipids, and calcium. For this study, in the in-vitro thrombin generation assay (TGA) using human platelet-rich plasma, and a kaolin slurry was used instead to initiate coagulation through the contact activation pathway. Thrombin generation is continuously monitored through the product released by cleavage of a thrombin-specific fluorogenic substrate.
(§2) Assessment of the dose-response for the occurrence of any bleeding was a secondary objective.
(§3) PD analyses were performed on the PD analysis set, defined as subjects who had at least one valid blood sample drawn for PD. Descriptive statistics (N, mean, SD, median, range, CV (%) and IQ range) were used to summarize PD response at each nominal sampling time point by treatment group. Changes from baseline were summarized when applicable. PD response outside of limit of quantitation were not to be imputed and were to be noted in the summary statistics.

[1] = tested on: cardiac potassium (hERG/IKr) channel; assay: In vitro cardiac potassium channel current inhibition; format: cell-based; details: concentrations that greatly exceed unbound plasma concentrations
clinical [2] = details: human, in vivo, po
Text: as §1, §2

clinical [3] = details: human, in vivo, po, median Tmax, healthy volunteers
[4] = tested on: activated partial thromboplastin time (aPTT); assay: AXIOMATIC-TKR: aPTT and ratio to baseline; format: in vivo, human
Protocol: In some embodiments, aPTT is measured as follows: Plasma samples are incubated with Actin FS aPTT assay reagent containing a standard amount of phospholipid and contact activator (ellagic acid) which activates the intrinsic coagulation pathway. After incubating for 3 minutes, calcium chloride is added to initiate coagulation and formation of a fibrin clot is measured optically. The time to clot formation (measured in seconds) is reported as the Activated Partial Thromboplastin Time (aPTT). […]
as §3

[5] = tested on: QT/QTc interval (cardiac repolarization); format: in vivo, human
Text: The upper bound of two-sided 90% CI for the largest difference in mean change from baseline in QTc intervals (ΔQTc; […].
A total of 66 participants were enrolled in the study and randomly assigned to 1 of 4 possible treatment sequences. […].
Forty-five (68.2%) participants completed all 4 periods with study intervention as planned. […]

[6] = tested on: participants with ischemic stroke or TIA; details: for Hemorragic Stroke Incidence Rate (n/N %) / Subjects With Hemorragic Stroke n: up to Day 21
Text: The study enrolled participants ≥40 years of age who had ischemic stroke or TIA. Ischemic stroke was defined as a neurological deficit attributable to a non-lacunar, acute brain infarction detected by neuroimaging and relevant to the clinical symptoms and National Institutes of Health Stroke Score (NIHSS) ≤7 at the time of randomization. TIA was defined as acute onset neurological deficit attributable to focal ischemia of the brain by history or examination, with complete resolution of the deficit and no brain infarction on neuroimaging and ABCD score ≥6 or presence of motor symptoms. Evidence of relevant intracranial or cervical arterial atherosclerotic plaque, ulceration or thrombus in a feeding artery documented by imaging was required regardless of whether the index event was ischemic stroke or TIA, and all participants were required to have a Modified Rankin Score ≤3 before the index event. […] Following informed consent, participants received ASA 100 mg QD and a single loading dose of clopidogrel 300 mg if not already given as standard of care. […] A second MRI was performed on Day 90±6 days. All participants were required to remain on study treatment until the Day 90 MRI was performed up to Day 96.
From 27 Jan. […] The 200 mg BID arm was opened on 5 Jun.

[7] = tested on: participants undergoing primary unilateral elective TKR surgery
Factor XI Activity = Factor XI Activity (Homo sapiens, UniProt P03951); assay: AXIOMATIC-TKR: FXI clotting activity (FXI:c); format: in vivo; design: dose or concentration left out as unconfirmed
Protocol: As used herein, “Factor XI Clotting Activity” is determined utilizing an aPTT-based 1-stage clotting time assay. Serial dilutions of normal pooled plasma are mixed with FXI-depleted plasma and the clotting times are measured according to standard aPTT protocol, to establish a reference range. Subject test plasma is treated in the same way and compared with the reference plasma.
In some embodiments, the Factor XI Clotting Activity is measured as follows: Factor XI (FXI) activity is measured using a modification of the activated partial thromboplastin time (aPTT) using Actin FS (Siemens Healthcare) on the Siemens BCS® XP analyzer. […] The reference standard, at approximately 100%, is diluted by the BCS® XP analyzer in saline to generate pre-selected calibration levels of FXI. The calibration curve is plotted with FXI activity in percent (%) on the x-axis and clotting time in seconds on the y-axis. A log/lin regression curve fit is used. […] APTT reagent (Actin FS) is added and the mixture is incubated. Following incubation, calcium chloride is added to the mixture and the time to clot formation (measured optically) is compared to the time on the calibration curve. Samples are tested at the base dilution (1:10) prepared by the BCS® XP in saline.
as §2, §3

[8] = tested on: VTE prevention in orthopedic surgery; details: cited from earlier work; for VTE prevention in orthopedic surgery vs enoxaparin 40 mg once daily: historical Phase 3 studies; for bleeding: Phase 2 orthopedic surgery studies and in combination with antiplatelets after an ACS
[9] = 40 mg QD subcutaneous, Day 1 2 h
[10] = 40 mg QD subcutaneous, Day 1 4 h
[11] = 40 mg QD subcutaneous, Day 2 Predose
[12] = 40 mg QD subcutaneous, Day 4 4 h
[13] = 40 mg QD subcutaneous, Day 4 Predose
[14] = 40 mg QD subcutaneous, Day 10-14

Factor XI Activity, sequence (P03951 19-625): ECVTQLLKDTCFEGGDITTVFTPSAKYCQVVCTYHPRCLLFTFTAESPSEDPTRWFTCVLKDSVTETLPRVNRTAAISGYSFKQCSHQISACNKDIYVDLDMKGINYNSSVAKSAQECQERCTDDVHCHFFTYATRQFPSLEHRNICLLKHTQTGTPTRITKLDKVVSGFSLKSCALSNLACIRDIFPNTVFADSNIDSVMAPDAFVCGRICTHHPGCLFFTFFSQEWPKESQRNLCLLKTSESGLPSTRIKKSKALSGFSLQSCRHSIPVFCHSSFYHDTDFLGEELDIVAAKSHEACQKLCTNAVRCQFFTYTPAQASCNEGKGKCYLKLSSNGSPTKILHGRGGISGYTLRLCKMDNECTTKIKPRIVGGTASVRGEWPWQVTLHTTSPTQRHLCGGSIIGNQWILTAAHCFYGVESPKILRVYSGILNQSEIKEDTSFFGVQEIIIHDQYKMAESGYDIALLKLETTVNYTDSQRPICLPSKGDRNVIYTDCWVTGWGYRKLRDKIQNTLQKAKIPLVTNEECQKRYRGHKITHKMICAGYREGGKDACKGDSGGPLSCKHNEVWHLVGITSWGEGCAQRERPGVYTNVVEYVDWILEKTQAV

Compound: C[C@@H]1CCC[C@H](n2cnc(-c3cc(Cl)ccc3-n3cc(Cl)nn3)cc2=O)c2cc(ccn2)-c2c(cnn2C(F)F)NC1=O [milvexian, (5R,9S)-9-(4-(5-chloro-2-(4-chloro-1H-1,2,3-triazol-1-yl)phenyl)-6-oxopyrimidin-1(6H)-yl)-2^1-(difluoromethyl)-5-methyl-2^1H-3-aza-1(4,2)-pyridina-2(5,4)-pyrazolacyclonaphan-4-one]
ETP Lag Time, Measured Value, Med (thrombin generation): 10.33 min | inhibition of cardiac potassium (hERG/IKr) channel currents [1]: weak to moderate potency | Tmax at 96 h (clinical [2]; Day 4, 25 mg and 100 mg twice daily): ~2 h | Tmax at 96 h (clinical [2]; Day 4, 50 mg and 200 mg once daily): ~4 h | Tmax (clinical [3]; once daily): 2 to 3 h | Tmax (clinical [3]; twice daily): ~3 h | aPTT Measured Value, Med ([4]; 50 mg QD, Day 4 4 h): 52 s | changes over time in HR, RR interval, PR interval, or QRS width ([5]; 100 mg and 200 mg twice daily): No consistent or clinically relevant changes | treatment-emergent QTcF or QTcB >480 ms or changes from baseline >60 ms ([5]; 100 mg and 200 mg twice daily for 4 days): No treatment-emergent actual values of QTcF or QTcB >480 ms or changes from baseline >60 ms were observed | upper bound of two-sided 90% CI for the largest ΔΔQTc (QTcF) ([5]; supratherapeutic 200 mg twice daily as solution): less than 10 milliseconds | upper bound of two-sided 90% CI for the largest ΔΔQTc (QTcF) ([5]; therapeutic 100 mg twice daily as capsule): less than 10 milliseconds | QT/QTc interval prolongation ([5]; therapeutic (100 mg) and supratherapeutic (200 mg) doses, ICH E14): does not show evidence of QT/QTc interval prolongation of clinical or regulatory concern | Hemorragic Stroke Incidence Rate (n/N %) ([6]; 25 mg BID): 0 (0) % | Subjects With Hemorragic Stroke n ([6]; 25 mg BID): 0 (0) | New Ischemic Stroke, MI and All Cause Death: Subjects With Event n ([6]; 25 mg BID, up to Day 90): 15 | Hemorragic Stroke Incidence Rate (n/N %) ([6]; 25 mg QD): 0 (0) % | Subjects With Hemorragic Stroke n ([6]; 25 mg QD): 0 (0) | Ischemic Stroke (n/N %) ([6]; 25 mg QD, up to Day 90): 4.6% | New Ischemic Stroke, MI and All Cause Death: Subjects With Event (n/N %) ([6]; 25 mg QD, up to Day 90): 5.2% | HR for clinical ischemic strokes vs placebo ([6]; 25 mg twice daily, 95% CI 0.36-1.30): 0.69 | Hemorragic Stroke Incidence Rate (n/N %) ([6]; 50 mg BID): 0 (0) % | Subjects With Hemorragic Stroke n ([6]; 50 mg BID): 0 (0) | Hemorragic Stroke Incidence Rate (n/N %) ([6]; 100 mg BID): 0 (0) % | Subjects With Hemorragic Stroke n ([6]; 100 mg BID): 0 (0) | New Ischemic Stroke, MI and All Cause Death: Subjects With Event (n/N %) ([6]; 100 mg BID, up to Day 90): 5.2% | rate of early treatment discontinuation ([6]; 200 mg BID, primarily due to AEs): 31.6% | Hemorragic Stroke Incidence Rate (n/N %) ([6]; 200 mg BID): 0 (0) % | Subjects With Hemorragic Stroke n ([6]; 200 mg BID): 0 (0) | New Ischemic Stroke, MI and All Cause Death: Subjects With Event (n/N %) ([6]; 200 mg BID, up to Day 90): 9.4% | dose-response relationship for bleeding events ([7]; AXIOMATIC-TKR or AXIOMATIC-SSP): No dose-response relationship was observed | fatal bleeding and symptomatic intracranial hemorrhage ([7]; Phase 2 studies): No fatal bleeding and no increases in symptomatic intracranial hemorrhage | Total VTE, participants n ([7]; milvexian BID dose regimens (N=518)): 63

Factor XI Activity Measured Value, Mean (Factor XI Activity; Day 1 4 h): 1.06 fraction of 1 | Factor XI Activity Measured Value, Med (Factor XI Activity; Day 1 4 h): 1.07 fraction of 1 | Factor XI Activity Measured Value, Mean (Factor XI Activity; Day 10-14): 1.36 fraction of 1 | Factor XI Activity Measured Value, Med (Factor XI Activity; Day 10-14): 1.39 fraction of 1
Compound: enoxaparin
aPTT Measured Value, Mean [4, 9]: 37.03 s | aPTT Measured Value, Med [4, 9]: 27.5 s | aPTT Measured Value, Mean [4, 10]: 29.14 s | aPTT Measured Value, Med [4, 10]: 27.75 s | aPTT Measured Value, Mean [4, 11]: 28.11 s | aPTT Measured Value, Med [4, 11]: 27.4 s | aPTT Measured Value, Mean [4, 12]: 27.37 s | aPTT Measured Value, Med [4, 12]: 26.1 s | aPTT Measured Value, Mean [4, 13]: 26.03 s | aPTT Measured Value, Med [4, 13]: 25.8 s | aPTT Measured Value, Mean [4, 14]: 27.8 s | aPTT Measured Value, Med [4, 14]: 25.9 s | Total VTE, participants n ([7]; 40 mg QD subcutaneous (N=252)): 54 | total venous thromboembolism (VTE) rate ([7]; 40 mg once daily subcutaneous): 21.4%

Compound: COc1ccc(-n2nc(C(N)=O)c3c2C(=O)N(c2ccc(N4CCCCC4=O)cc2)CC3)cc1 [apixaban]
VTE prevention in orthopedic surgery vs enoxaparin 40 mg once daily ([8]; 2.5 mg twice daily): superior to enoxaparin | bleeding [8]: dose-related bleeding

Compound: COc1c(N2C[C@@H]3CCCN[C@@H]3C2)c(F)cc2c(=O)c(C(=O)O)cn(C3CC3)c12 [moxifloxacin, reference compound]
participants with treatment-emergent change from baseline of QTcB >60 ms ([5]; single dose of 400 mg): 1.7%

Compound: O=C(NC[C@H]1CN(c2ccc(N3CCOCC3=O)cc2)C(=O)O1)c1ccc(Cl)s1 [rivaroxaban]
VTE prevention in orthopedic surgery vs enoxaparin 40 mg once daily ([8]; 10 mg once daily): superior to enoxaparin | bleeding [8]: dose-related bleeding
